Test results reported in ChEMBL document CHEMBL5034023, “Development of Multifunctional and Orally Active Cyclic Peptide Agonists of Opioid/Neuropeptide FF Receptors that Produce Potent, Long-Lasting, and Peripherally Restricted Antinociception with Diminished Side Effects” (J Med Chem, 2021).
Active and inactive are the calls of the source. Bridge positions count the residues as written; N and C are the ends. Square brackets hold non-standard residues; d marks the D form. Peptide text beside a SMILES is read from it. NMeF = CN[C@@H](Cc1ccccc1)C(=O)O

Experiments:
[1] = AUC (0 to infinity) in Kunming mouse at 868.1 nmol/kg, po measured up to 120 mins by LC-MS/MS analysis; type: ADME, organism-based; design: route oral, dose 868.1 nmol/kg, time <=120; details: in vivo, 2 h
[2] = target: Neuropeptide FF receptor 2 (Homo sapiens, UniProt Q9Y5X5); assay: Agonist activity at NPFF2R (unknown origin) expressed in HEK293-A cells assessed as inhibition of forskolin-induced cAMP accumulation by measuring maximal efficacy preincubated for 30 mins in presence of 3-isobutyl-1-methylxanthine followed by forskolin and compound addition by competitive PKA binding assay relative to control; type: functional, cell-based; details: filed as agonist
Mus musculus [3] = assay: Antinociception activity in po dosed Kunming mouse model of sciatic nerve CCI-induced neuropathic pain assessed as reduction in mechanical hypersensitivity by measuring reduction in paw withdrawl threshold measured up to 180 mins by Von Frey test; type: functional; details: 3 h, time min <=180
Mus musculus [4] = assay: Antinociceptive activity against Kunming mouse model of thermal-induced nociception assessed as prolongation of tail-flick latency period at 2 pmol, icv in presence of nor-BNI measured up to 240 mins by tail-flick test; type: functional, organism-based; details: time min <=240
Mus musculus [5] = assay: Antinociceptive activity against Kunming mouse model of thermal-induced nociception assessed as prolongation of tail-flick latency period at 8.68 nmol/kg, po measured up to 240 mins by tail-flick test; type: functional, organism-based; details: time min <=240
[6] = target: T1, Delta-type opioid receptor (Homo sapiens, UniProt P41143); assay: Agonist activity at DOR (unknown origin) expressed in HEK293-A cells assessed as inhibition of forskolin-induced cAMP accumulation preincubated for 30 mins in presence of 3-isobutyl-1-methylxanthine followed by forskolin and compound addition by competitive PKA binding assay relative to control; type: functional, cell-based; details: filed as agonist
Mus musculus [7] = assay: Antinociceptive activity against Kunming mouse model of thermal-induced nociception assessed as prolongation of tail-flick latency period at 2 pmol, icv in presence of Nal measured up to 240 mins by tail-flick test; type: functional, organism-based; details: time min <=240
[8] = Absolute oral bioavailability in Kunming mouse at 868.1 nmol/kg measured up to 120 mins by LC-MS/MS analysis; type: ADME, organism-based; details: in vivo
[9] = Toxicity in Kunming mouse assessed as inhibition of gastrointestinal transit at 8681 nmol/kg, po measured after 30 mins by charcoal meal test relative to control; type: organism-based; design: scale not given: the % may be the effect or the level left; details: in vivo, 0.5 h
Mus musculus [10] = assay: Antinociceptive activity against Kunming mouse model of thermal-induced nociception assessed as prolongation of tail-flick latency period at 8.68 nmol/kg, sc in presence of RF9 at 5 mg/kg, sc measured up to 240 mins by tail-flick test; type: functional, organism-based; details: time min <=240
[11] = Cmax in Kunming mouse at 868.1 nmol/kg, iv measured up to 120 mins by LC-MS/MS analysis; type: ADME, organism-based; design: route intravenous, dose 868.1 nmol/kg, time <=120; details: in vivo
Mus musculus [12] = assay: Antinociceptive activity against Kunming mouse model of thermal-induced nociception assessed as prolongation of tail-flick latency period at 8.68 nmol/kg, po in presence of Nal at 1 mg/kg, ip measured up to 240 mins by tail-flick test; type: functional, organism-based; details: time min <=240
Mus musculus [13] = assay: Antinociceptive activity in Kunming mouse assessed as analgesic tolerance by measuring fold shift in maximal possible effect at 8.68 nmol/kg, po administered for 8 consecutive days by tail flick test; type: functional
[14] = MRT (0 to infinity) in Kunming mouse at 868.1 nmol/kg, po measured up to 120 mins by LC-MS/MS analysis; type: ADME, organism-based; details: in vivo
Mus musculus [15] = assay: Antinociceptive activity against Kunming mouse model of thermal-induced nociception assessed as prolongation of tail-flick latency period at 8.68 nmol/kg, sc in presence of nor-BNI at 1 mg/kg, sc measured up to 240 mins by tail-flick test; type: functional, organism-based; details: time min <=240
Mus musculus [16] = assay: Antinociceptive activity against Kunming mouse model of thermal-induced nociception assessed as maximum possible effect at 8.68 nmol/kg, po measured after 30 min by tail flick test relative to control; type: functional; details: 0.5 h
Mus musculus [17] = assay: Antinociceptive activity against Kunming mouse model of thermal-induced nociception assessed as prolongation of tail-flick latency period at 2 pmol, icv in presence of bet-FNA measured up to 240 mins by tail-flick test; type: functional, organism-based; details: time min <=240
Mus musculus [18] = assay: Antinociceptive activity against sc dosed Kunming mouse model of thermal-induced nociception assessed as fold shift in duration of analgesic effect by tail-flick test relative to DN-9; type: functional
Mus musculus [19] = assay: Antinociceptive activity against Kunming mouse model of thermal-induced nociception assessed as prolongation of tail-flick latency period at 8.68 nmol/kg, po in presence of NALM at 1 mg/kg, ip measured up to 240 mins by tail-flick test; type: functional, organism-based; details: time min <=240
[20] = Apparent volume of distribution in Kunming mouse at 868.1 nmol/kg, iv measured up to 120 mins by LC-MS/MS analysis; type: ADME, organism-based; details: in vivo, read-out: Vd(app)
Mus musculus [21] = assay: Antinociceptive activity against Kunming mouse model of thermal-induced nociception assessed as prolongation of tail-flick latency period at 8.68 nmol/kg, sc in presence of NALM at 5 nmol/kg, icv measured up to 240 mins by tail-flick test; type: functional, organism-based; details: time min <=240
Mus musculus [22] = assay: Antinociceptive activity in po dosed Kunming mouse assessed as analgesic tolerance by measuring increase in maximal possible effect administered for 8 consecutive days by tail flick test (Rvb= 1.16 nmol/kg); type: functional
Mus musculus [23] = assay: Antinociceptive activity against po dosed Kunming mouse model of thermal-induced nociception assessed as prolongation of tail-flick latency period measured up to 240 mins by tail-flick test; type: functional; details: 4 h, time min <=240
[24] = Half life in Kunming mouse at 868.1 nmol/kg, iv measured up to 120 mins by LC-MS/MS analysis; type: ADME, organism-based; details: in vivo
Mus musculus [25] = assay: Antinociceptive activity against Kunming mouse model of thermal-induced nociception assessed as prolongation of tail-flick latency period at 0.5 pmol, icv in presence of RF9 measured up to 240 mins by tail-flick test; type: functional, organism-based; details: time min <=240
[26] = target: Kappa-type opioid receptor (Homo sapiens, UniProt P41145); type: functional, cell-based, HEK293-A
[27] = Tmax in Kunming mouse at 868.1 nmol/kg, po measured up to 120 mins by LC-MS/MS analysis; type: ADME, organism-based; details: in vivo
Mus musculus [28] = assay: Antinociceptive activity against Kunming mouse model of thermal-induced nociception assessed as peripheral analgesia administered subcutaneously by tail-flick test; type: functional; details: sc
Mus musculus [29] = assay: Antinociceptive activity against Kunming mouse model of thermal-induced nociception assessed as prolongation of tail-flick latency period at 8.68 nmol/kg, po in presence of NALM at 5 nmol, icv measured up to 240 mins by tail-flick test; type: functional, organism-based; details: time min <=240
Mus musculus [30] = assay: Antinociceptive activity against Kunming mouse model of thermal-induced nociception assessed as prolongation of tail-flick latency period at 0.87 nmol/kg, po in presence of RF9 at 5 mg/kg, ip measured up to 240 mins by tail-flick test; type: functional, organism-based; details: time min <=240
Mus musculus [31] = assay: Antinociception activity in po dosed Kunming mouse model of sciatic nerve CCI-induced neuropathic pain assessed as reduction in thermal hypersensitivity by measuring reduction in paw withdrawl threshold measured up to 180 mins by Hargreaves test; type: functional; details: 3 h, time min <=180
[32] = target: T1, Delta-type opioid receptor; assay: Agonist activity at DOR (unknown origin) expressed in HEK293-A cells assessed as inhibition of forskolin-induced cAMP accumulation preincubated for 30 mins in presence of 3-isobutyl-1-methylxanthine followed by forskolin and compound addition by competitive PKA binding assay; type: functional, cell-based

T1 sequence (P41143 whole entry): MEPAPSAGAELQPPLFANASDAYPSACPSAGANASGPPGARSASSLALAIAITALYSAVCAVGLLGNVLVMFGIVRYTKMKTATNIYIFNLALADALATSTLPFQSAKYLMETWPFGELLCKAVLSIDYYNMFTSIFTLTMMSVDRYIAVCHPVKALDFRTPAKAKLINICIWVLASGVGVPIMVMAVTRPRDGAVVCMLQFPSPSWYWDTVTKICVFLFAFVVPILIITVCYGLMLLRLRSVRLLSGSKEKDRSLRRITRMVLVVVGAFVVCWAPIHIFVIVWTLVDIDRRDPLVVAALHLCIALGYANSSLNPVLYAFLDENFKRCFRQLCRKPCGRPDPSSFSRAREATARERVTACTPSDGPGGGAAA
Kappa-type opioid receptor, sequence (P41145 whole entry): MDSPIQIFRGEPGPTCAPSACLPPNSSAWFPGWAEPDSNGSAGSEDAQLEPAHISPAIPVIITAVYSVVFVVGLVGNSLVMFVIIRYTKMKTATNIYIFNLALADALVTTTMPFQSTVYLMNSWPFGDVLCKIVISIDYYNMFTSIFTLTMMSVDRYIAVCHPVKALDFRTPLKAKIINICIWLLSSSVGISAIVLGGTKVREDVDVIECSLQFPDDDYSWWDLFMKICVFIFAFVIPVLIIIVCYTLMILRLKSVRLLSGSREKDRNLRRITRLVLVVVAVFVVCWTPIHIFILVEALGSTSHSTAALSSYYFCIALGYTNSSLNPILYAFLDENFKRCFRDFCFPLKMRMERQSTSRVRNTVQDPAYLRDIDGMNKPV
Neuropeptide FF receptor 2, sequence (Q9Y5X5 whole entry): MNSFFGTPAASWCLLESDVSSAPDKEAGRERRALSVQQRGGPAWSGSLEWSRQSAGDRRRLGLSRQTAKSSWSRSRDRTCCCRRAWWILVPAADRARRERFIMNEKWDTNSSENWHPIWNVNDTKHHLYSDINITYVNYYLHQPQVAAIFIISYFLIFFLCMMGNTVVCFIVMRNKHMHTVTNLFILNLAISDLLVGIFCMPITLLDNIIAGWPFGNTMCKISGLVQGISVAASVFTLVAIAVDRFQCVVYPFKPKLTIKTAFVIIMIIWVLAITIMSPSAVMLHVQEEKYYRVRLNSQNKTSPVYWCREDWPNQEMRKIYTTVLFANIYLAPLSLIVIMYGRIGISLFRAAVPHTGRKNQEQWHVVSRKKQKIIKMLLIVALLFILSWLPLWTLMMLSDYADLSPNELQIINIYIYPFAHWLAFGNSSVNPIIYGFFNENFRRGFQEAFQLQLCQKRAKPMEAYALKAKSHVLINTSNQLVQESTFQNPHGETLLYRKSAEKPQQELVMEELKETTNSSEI

For `CN1C(=O)CNC(=O)[C@H](NC(=O)[C@@H](N)Cc2ccc(O)cc2)CCCCNC(=O)C[C@@H](C(=O)N2CCC[C@H]2C(=O)N[C@@H](CCC(N)=O)C(=O)N[C@@H](CCCNC(=N)N)C(=O)N[C@@H](Cc2ccccc2)C(N)=O)NC(=O)[C@@H]1Cc1ccccc1` (H-Y[dK]G[NMeF]DPQRF-NH2; lactam 2-5), the AUC [1] was 13800.8 µg·min/L, the Emax [2] was 59.5% and the ED50 (Mus musculus [3]) was 0.00334 µmol/kg. For the same compound, the Activity (Mus musculus [4]) was “inactive”, the Activity (Mus musculus [5]) was “Active” and the Emax [6] was 56.1%. For the same compound, the Activity (Mus musculus [7]) was “inactive”, the bioavailability [8] was 43.8% and the Activity [9] was greater than 50%. The Activity (Mus musculus [10]) was “Active”, the Cmax [11] was 5070 ng/mL and the Activity (Mus musculus [12]) was “inactive”. The “fold change (FC)” value (Mus musculus [13]) was 0.92, the MRT inf [14] was 279 min and the Activity (Mus musculus [15]) was “inactive”. The MPE (Mus musculus [16]) was 94.2%, the Activity (Mus musculus [17]) was “inactive” and the “fold change (FC)” value (Mus musculus [18]) was 2.7. For the same compound, the Activity (Mus musculus [19]) was “inactive”, the Vd [20] was 1.2 L/kg and the Activity (Mus musculus [21]) was “Active”. For the same compound, the ED50 (Mus musculus [22]) was 0.00126 µmol/kg, the ED50 (Mus musculus [23]) was 0.00119 µmol/kg and the half-life [24] was 28.1 min. For the same compound, the Activity (Mus musculus [25]) was “Active”, the EC50 [26] was 39 nM and the Tmax [27] was 1 min. The ED50 (Mus musculus [28]) was 0.00028 µmol/kg, the Activity (Mus musculus [29]) was “Active” and the Activity (Mus musculus [30]) was “Active”. It also gave an ED50 (Mus musculus [31]) of 0.00322 µmol/kg and an EC50 [32] of 546 nM.
